pIC50: −log10 of the molar value. Like-named read-outs stand apart in the source and are kept apart here.
Columns and labels:
AURKA = molecular target: T1, AURKA (Homo sapiens, UniProt O14965); type: cell-based
T1 construct: endogenous in cells; host or cells: Jurkat cells
T1 sequence (O14965 1-403): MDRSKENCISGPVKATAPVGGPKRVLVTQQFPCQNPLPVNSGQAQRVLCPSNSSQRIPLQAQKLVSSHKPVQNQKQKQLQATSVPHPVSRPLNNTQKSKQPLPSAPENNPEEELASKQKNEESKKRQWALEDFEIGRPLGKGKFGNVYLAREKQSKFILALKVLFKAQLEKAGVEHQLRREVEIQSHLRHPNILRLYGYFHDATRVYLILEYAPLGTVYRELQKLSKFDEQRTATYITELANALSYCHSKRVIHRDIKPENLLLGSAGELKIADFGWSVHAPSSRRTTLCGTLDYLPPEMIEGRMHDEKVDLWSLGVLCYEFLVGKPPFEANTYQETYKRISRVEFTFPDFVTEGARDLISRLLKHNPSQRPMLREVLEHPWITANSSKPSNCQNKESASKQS
Method in brief: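 Jurkat cells seeded at 1×10^6 cells/500 µL and treated with compound; lysates run on SDS-PAGE, blotted to nitrocellulose and probed overnight at 4°C for AURKA. Chemiluminescent or fluorescent band intensity fitted to a curve to give DC50 for protein degradation.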

H82 cells = assay: cells; type: cell-based; details: Homo sapiens
Method in brief: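 H82 cells in RPMI1640 + 10% FBS exposed to compound (0.1% DMSO final) for 6 days at 37 °C, 5% CO2. Viability read by CellTiter-Glo ATP luminescence, normalised to DMSO and medium controls; IC50 from nonlinear regression of the dose–survival curve.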

[1] = 100 nM compound, Jurkat cells, 24 h, Table 2
[2] = 1 µM compound, Jurkat cells, 24 h, Table 2
[3] = NCI-H82, H82 cells, 4000 cells/well, CellTiter-Glo, read-out: IC50 in H82 Cells
[4] = NCI-H82, read-out: IC50 in H82 Cells

SMILES	Percentage of AURKA Degradation Induced by 100 nM Compound in Jurkat Cells (AURKA; [1])	Percentage of AURKA Degradation Induced by 1 µM Compound in Jurkat Cells (AURKA; [2])	pIC50 (H82 cells; [3])	Percentage of AURKA Degradation Induced by 100 nM Compound in Jurkat Cells (AURKA)	Percentage of AURKA Degradation Induced by 1 µM Compound in Jurkat Cells (AURKA)	pIC50 (H82 cells; [4])
O=C1CCN(c2cccc(N3CCN(C4CN(c5cccc(Nc6ncc7c(n6)-c6ccc(Cl)cc6C(c6c(F)cccc6F)=NC7)c5)C4)CC3)c2)C(=O)N1 [Compound A164]	++ (30% < Degradation ≤ 70%)	+++ (Degradation > 70%)	> 6.00	–	–	–
O=C1CCN(c2ccc(N3CCC(N4CCN(c5ccc(Nc6ncc7c(n6)-c6ccc(Cl)cc6C(c6c(F)cccc6F)=NC7)cc5)C(=O)C4)C3)nc2)C(=O)N1 (stereo not drawn) [Compound A166]	+++ (Degradation > 70%)	++ (30% < Degradation ≤ 70%)	> 6.00	–	–	–
O=C1CCN(c2ccc(N3CCC4(CC3)CC(NC(=O)c3ccc(Nc5ncc6c(n5)-c5ccc(OC7CC7)cc5C(c5c(F)cccc5F)=NC6)cc3)C4)nc2)C(=O)N1 [Compound A168]	+++ (Degradation > 70%)	+++ (Degradation > 70%)	> 6.00	–	–	–
O=C1CCN(c2cccc(N3CCC(N4CC(c5cccc(Nc6ncc7c(n6)-c6ccc(Cl)cc6C(c6c(F)cccc6F)=NC7)c5)C4)C3)c2)C(=O)N1 (stereo not drawn) [Compound A170]	+++ (Degradation > 70%)	+++ (Degradation > 70%)	> 6.00	–	–	–
CN(C)Cc1ccc2c(c1)C(c1c(F)cccc1F)=NCc1cnc(Nc3ccc(C(=O)NC4CC5(CCN(c6ccc(N7CCC(=O)NC7=O)cn6)CC5)C4)cc3)nc1-2 [Compound A172]	++ (30% < Degradation ≤ 70%)	+++ (Degradation > 70%)	> 6.00	–	–	–
O=C1CCN(c2cnc(N3CCN(CCN4Cc5ccc(Nc6ncc7c(n6)-c6ccc(Cl)cc6C(c6c(F)cccc6F)=NC7)cc5C4)CC3)s2)C(=O)N1 [Compound A174]	++ (30% < Degradation ≤ 70%)	++ (30% < Degradation ≤ 70%)	> 6.00	–	–	–
Cc1c(N2CC(CN3CCc4ccc(Nc5ncc6c(n5)-c5ccc(Cl)cc5C(c5c(F)cccc5F)=NC6)cc4C3)C2)cccc1N1CCC(=O)NC1=O [Compound A176]	+++ (Degradation > 70%)	+++ (Degradation > 70%)	> 6.00	–	–	–
Cc1c(N2CCC(CN3CCc4ccc(Nc5ncc6c(n5)-c5ccc(Cl)cc5C(c5c(F)cccc5F)=NC6)cc4C3)CC2)cccc1N1CCC(=O)NC1=O [Compound A178]	+++ (Degradation > 70%)	+++ (Degradation > 70%)	> 6.00	–	–	–
Cc1c(N2CCC(N3Cc4ccc(Nc5ncc6c(n5)-c5ccc(Cl)cc5C(c5c(F)cccc5F)=NC6)cc4C3)CC2)cccc1N1CCC(=O)NC1=O [Compound A179]	++ (30% < Degradation ≤ 70%)	++ (30% < Degradation ≤ 70%)	> 6.00	–	–	–
Cc1c(N2CCC(CN3Cc4ccc(Nc5ncc6c(n5)-c5ccc(Cl)cc5C(c5c(F)cccc5F)=NC6)cc4C3)CC2)cccc1N1CCC(=O)NC1=O [Compound A181]	+++ (Degradation > 70%)	+++ (Degradation > 70%)	> 6.00	–	–	–
O=C1CCN(c2cncc(N3CCN(C4CN(c5cccc(Nc6ncc7c(n6)-c6ccc(Cl)cc6C(c6c(F)cccc6F)=NC7)c5)C4)CC3)c2)C(=O)N1 [Compound A183]	+++ (Degradation > 70%)	+++ (Degradation > 70%)	> 6.00	–	–	–
O=C1CCN(c2ccc(N3CCN(C4CCN(c5ccc(Nc6ncc7c(n6)-c6ccc(Cl)cc6C(c6c(F)cccc6F)=NC7)cc5)CC4)CC3)nc2)C(=O)N1 [Compound A185]	–	–	–	+++ (key: +: Degradation ≤ 30%; ++: 30% < Degradation ≤ 70%; +++: Degradation > 70%)	+++ (key: +: Degradation ≤ 30%; ++: 30% < Degradation ≤ 70%; +++: Degradation > 70%)	> 6.00
O=C1CCN(c2ccc(N3CCC4(CC3)CC(NC(=O)C35CC(Nc6ncc7c(n6)-c6ccc(Cl)cc6C(c6c(F)cccc6F)=NC7)(C3)C5)C4)nc2)C(=O)N1 [Compound A195]	+++ (Degradation > 70%)	+++ (Degradation > 70%)	> 6.00	–	–	–
O=C1CCN(c2cncc(N3CCN(CC4CN(c5cccc(Nc6ncc7c(n6)-c6ccc(Cl)cc6C(c6c(F)cccc6F)=NC7)c5)C4)CC3)c2)C(=O)N1 [Compound A197]	+++ (Degradation > 70%)	+++ (Degradation > 70%)	> 6.00	–	–	–
O=C1CCN(c2ccc(N3CCN(CC4CN(c5ccc(Nc6ncc7c(n6)-c6ccc(Cl)cc6C(c6c(F)cccc6F)=NC7)cc5)C4)CC3)nc2)C(=O)N1 [Compound A199]	+++ (Degradation > 70%)	+++ (Degradation > 70%)	> 6.00	–	–	–
O=C1CCN(c2cnc(N3CC(CN4CCN(c5ccc(Nc6ncc7c(n6)-c6ccc(Cl)cc6C(c6c(F)cccc6F)=NC7)cc5)C(=O)C4)C3)s2)C(=O)N1 [Compound A203]	++ (30% < Degradation ≤ 70%)	+++ (Degradation > 70%)	> 6.00	–	–	–
O=C1CCN(c2cncc(N3CC(CN4CCc5ccc(Nc6ncc7c(n6)-c6ccc(Cl)cc6C(c6c(F)cccc6F)=NC7)cc5C4)C3)c2)C(=O)N1 [Compound A209]	+++ (Degradation > 70%)	+++ (Degradation > 70%)	–	–	–	> 6.00
N#Cc1cc(Nc2ncc3c(n2)-c2ccc(Cl)cc2C(c2c(F)cccc2F)=NC3)ccc1N1CCN(C2CCN(c3ccc(N4CCC(=O)NC4=O)cn3)CC2)CC1 [Compound A211]	++ (30% < Degradation ≤ 70%)	+++ (Degradation > 70%)	> 6.00	–	–	–
O=C1CCN(c2ccc(N3CCC(N4CCN(c5ccc(Nc6ncc7c(n6)-c6ccc(Cl)cc6C(c6c(F)cccc6F)=NC7)cn5)CC4)CC3)nc2)C(=O)N1 [Compound A213]	+++ (Degradation > 70%)	+++ (Degradation > 70%)	> 6.00	–	–	–
O=C1CCN(c2cncc(N3CC(CN4CCOc5ccc(Nc6ncc7c(n6)-c6ccc(Cl)cc6C(c6c(F)cccc6F)=NC7)cc5C4)C3)c2)C(=O)N1 [Compound A214]	+++ (Degradation > 70%)	+ (Degradation ≤ 30%)	> 6.00	–	–	–
O=C1CCN(c2ccc(N3CCC(N4CCN(C56CC(Nc7ncc8c(n7)-c7ccc(Cl)cc7C(c7c(F)cccc7F)=NC8)(C5)C6)CC4)CC3)nc2)C(=O)N1 [Compound A216]	++ (30% < Degradation ≤ 70%)	++ (30% < Degradation ≤ 70%)	> 6.00	–	–	–

Reference: patent EP4818168A1, “FUSED RING COMPOUND, PHARMACEUTICAL COMPOSITION THEREOF AND USE THEREOF” (priority 2023, dated 2025)
